# Measured values reported in PubChem BioAssay (NCI).
#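 All cell lines were grown in 96-well plates and treated with compound for 48 hours. The concentration for 50% growth inhibition is given as GI50. TGI is the concentration that stops growth completely.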
# Assays:
# Experiment in all cases: inhibition of tumour cell growth, NCI panel, 48 h
# HOP-92 NSCLC = tested on: HOP-92 NSCLC
# K-562 leukemia = tested on: K-562 leukemia
# NCI-H23 lung = tested on: NCI-H23 lung
# SF-268 CNS = tested on: SF-268 CNS
# SK-MEL-2 melanoma = tested on: SK-MEL-2 melanoma
# TK-10 renal = tested on: TK-10 renal
# HCT-15 colon = tested on: HCT-15 colon
# HS 578T breast = tested on: HS 578T breast
# MDA-MB-231 breast = tested on: MDA-MB-231 breast
# OVCAR-3 ovarian = tested on: OVCAR-3 ovarian
Compound,TGI (HOP-92 NSCLC),TGI (K-562 leukemia),TGI (NCI-H23 lung),TGI (SF-268 CNS),TGI (SK-MEL-2 melanoma),TGI (TK-10 renal),TGI (HCT-15 colon),TGI (HS 578T breast),TGI (MDA-MB-231 breast),TGI (OVCAR-3 ovarian),GI50 (HCT-15 colon),GI50 (HS 578T breast),GI50 (K-562 leukemia),GI50 (MDA-MB-231 breast),GI50 (NCI-H23 lung),GI50 (OVCAR-3 ovarian),GI50 (SF-268 CNS),GI50 (SK-MEL-2 melanoma),GI50 (TK-10 renal),GI50 (HOP-92 NSCLC)
C#CC1(O)c2ccccc2C(=O)c2ccccc21,99.6 µM,> 100 µM,> 100 µM,> 100 µM,> 100 µM,> 100 µM,–,–,–,–,–,–,–,–,–,–,–,–,–,–
COc1c(-c2ccc(O)c(O)c2)oc2c(O)c(O)cc(O)c2c1=O,> 100 µM,46.4 µM,> 100 µM,–,> 100 µM,> 100 µM,> 100 µM,> 100 µM,> 100 µM,> 100 µM,–,–,–,–,–,–,–,–,–,–
Clc1ccc2nc(-c3ccccc3)nc(Cl)c2c1,50.3 µM,> 100 µM,> 100 µM,> 100 µM,> 100 µM,63.9 µM,> 100 µM,–,–,> 100 µM,–,–,–,–,–,–,–,–,–,–
CCCCN(CCCC)CCC(O)c1cc2c(Cl)cc(Cl)cc2c2cc(C(F)(F)F)ccc12 (stereo unspecified),10.6 µM,22.4 µM,30.6 µM,24.4 µM,30.2 µM,27.6 µM,19.1 µM,–,15.3 µM,23.7 µM,–,–,–,–,–,–,–,–,–,–
CN1CCN(Cc2ccc(NC(=O)c3cncc(C#Cc4cncc5nccnc45)c3)cc2C(F)(F)F)CC1,–,9.86 µM,11 µM,16.6 µM,2.7 µM,12.8 µM,12.9 µM,7.89 µM,4.59 µM,15.1 µM,2.51 µM,1.13 µM,0.005 µM,0.869 µM,2.16 µM,4.95 µM,5.22 µM,0.915 µM,5.34 µM,–
Cc1ccc(NC(=S)SCCC(=O)O)cc1,–,> 100 µM,> 100 µM,> 100 µM,> 100 µM,> 100 µM,> 100 µM,–,–,> 100 µM,–,–,–,–,–,–,–,–,–,–
COc1ccc(/C=c2/sc3n(c2=O)NC2(CCC(C)CC2)NN=3)cc1 (stereo unspecified),> 100 µM,> 100 µM,> 100 µM,> 100 µM,> 100 µM,> 100 µM,–,–,–,> 100 µM,–,–,–,–,–,–,–,–,–,–
COc1ccc2c(Cl)cc(NC(=O)Nc3c(C)cccc3C)nc2c1,27.4 µM,> 100 µM,> 100 µM,> 100 µM,85 µM,58.2 µM,> 100 µM,–,> 100 µM,> 100 µM,27.3 µM,–,60.7 µM,13.3 µM,76.9 µM,23.5 µM,39.7 µM,28.6 µM,11.2 µM,4.26 µM
CC12CO[C@@](C)(CC(S(=O)(=O)c3ccccc3)C1)O2 (stereo partly specified),> 100 µM,> 100 µM,> 100 µM,> 100 µM,> 100 µM,–,> 100 µM,–,–,> 100 µM,–,–,–,–,–,–,–,–,–,–
COC(=O)C1C=NNC1C(=O)OC (stereo unspecified),–,> 100 µM,> 100 µM,> 100 µM,> 100 µM,> 100 µM,> 100 µM,–,–,> 100 µM,–,–,–,–,–,–,–,–,–,–
